Values after ≈ are worked out from the molar mass of the structure shown. Active and inactive are the calls of the source. The calls are words filed in the database; no cut-off is given here.
Key:
[1] = Metabolic stability in human liver microsomes assessed as clearance by LC/MS-MS analysis; type: ADME, Microsome
[2] = Metabolic stability in rat liver microsomes assessed as clearance by LC/MS-MS analysis; type: ADME, Microsome
[3] = Antagonist activity at rat TRPA1 expressed in CHO cells assessed as cinnamaldehyde-induced calcium flux measured after 90 mins by FLIPR assay; type: cell-based; conditions: 1.5 h
[4] = Antagonist activity at human TRPA1 expressed in CHO cells assessed as cinnamaldehyde-induced calcium flux measured after 90 mins by FLIPR assay; type: cell-based; conditions: 1.5 h
[5] = Lipophilicity, logD of compound; type: physicochemical; conditions: octanol/water
[6] = Protein binding in human plasma; type: ADME, cell-free; conditions: read-out: PPB (converted)
[7] = Protein binding in rat plasma; type: ADME, cell-free; conditions: read-out: PPB (converted)
[8] = Half life in rat at 1 mg/kg; type: ADME, organism-based; conditions: in vivo
Rattus norvegicus = species: Rattus norvegicus; assay: Antinociceptive activity against AITC-induced rat pain model assessed as nocifensive behaviour by measuring unbound concentration; type: functional, organism-based
[9] = Unbound Volume of distribution at steady state in rat at 1 mg/kg; type: ADME, organism-based; conditions: in vivo
[10] = Volume of distribution at steady stare in rat at 1 mg/kg; type: ADME, organism-based; conditions: in vivo, read-out: Vdss
[11] = Clearance in rat at 1 mg/kg; type: ADME, organism-based; conditions: in vivo
[12] = Apparent permeability across apical to basolateral side in MDCK cells; type: ADME, cell-based, Canis lupus familiaris; conditions: dog, read-out: permeability
[13] = Kinetic solubility of the compound; type: physicochemical; conditions: read-out: Kinetic_solubility
[14] = Oral bioavailability in rat at 1 mg/kg; type: ADME, organism-based; conditions: in vivo
[15] = Metabolic stability in rat hepatocytes assessed as clearance; type: ADME, cell-based, Hepatocyte
[16] = target: Transient receptor potential cation channel subfamily A member 1 (Rattus norvegicus) (UniProt Q6RI86); assay: In vivo antagonist activity at TRPA1 in AITC-induced rat pain model assessed as nocifensive behaviour at 2.18 ratio of free plasma concentration to IC50 for rat […]; type: functional, organism-based; conditions: concentration not given here
Transient receptor potential cation channel subfamily A member 1 (Rattus norvegicus), sequence (Q6RI86 whole entry): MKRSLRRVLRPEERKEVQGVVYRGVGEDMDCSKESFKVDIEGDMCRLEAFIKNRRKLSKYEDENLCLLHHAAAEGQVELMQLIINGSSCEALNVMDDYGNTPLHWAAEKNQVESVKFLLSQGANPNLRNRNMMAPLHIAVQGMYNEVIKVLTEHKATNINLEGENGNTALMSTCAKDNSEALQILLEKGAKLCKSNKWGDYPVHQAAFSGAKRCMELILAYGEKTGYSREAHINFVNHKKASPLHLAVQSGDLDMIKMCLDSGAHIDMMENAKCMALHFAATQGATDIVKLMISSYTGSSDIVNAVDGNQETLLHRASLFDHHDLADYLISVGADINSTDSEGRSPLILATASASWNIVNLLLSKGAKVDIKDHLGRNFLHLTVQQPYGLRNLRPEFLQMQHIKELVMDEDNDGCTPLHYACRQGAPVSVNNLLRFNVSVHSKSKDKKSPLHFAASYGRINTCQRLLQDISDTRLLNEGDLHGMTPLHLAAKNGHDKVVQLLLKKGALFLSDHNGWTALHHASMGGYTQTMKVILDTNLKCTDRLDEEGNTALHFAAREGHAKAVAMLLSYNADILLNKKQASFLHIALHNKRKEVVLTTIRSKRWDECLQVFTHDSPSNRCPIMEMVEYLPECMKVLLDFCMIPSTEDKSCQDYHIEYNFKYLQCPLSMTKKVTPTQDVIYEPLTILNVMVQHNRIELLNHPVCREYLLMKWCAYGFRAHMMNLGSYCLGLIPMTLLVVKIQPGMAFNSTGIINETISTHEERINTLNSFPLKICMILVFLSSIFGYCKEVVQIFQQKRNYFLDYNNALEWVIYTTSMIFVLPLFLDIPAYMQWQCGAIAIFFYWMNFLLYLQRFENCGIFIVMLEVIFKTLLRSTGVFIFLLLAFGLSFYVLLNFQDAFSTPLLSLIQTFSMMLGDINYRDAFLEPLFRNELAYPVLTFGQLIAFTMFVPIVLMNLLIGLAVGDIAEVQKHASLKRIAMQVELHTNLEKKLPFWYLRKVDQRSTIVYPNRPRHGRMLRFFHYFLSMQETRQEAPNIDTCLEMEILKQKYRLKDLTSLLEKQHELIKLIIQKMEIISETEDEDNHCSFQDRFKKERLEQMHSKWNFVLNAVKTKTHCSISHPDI

[17] = target: Transient receptor potential cation channel subfamily A member 1 (Rattus norvegicus) (UniProt Q6RI86); assay: In vivo antagonist activity at TRPA1 in AITC-induced rat pain model assessed as nocifensive behaviour at 7.95 ratio of free plasma concentration to IC50 for rat […]; type: functional, organism-based; conditions: concentration not given here
[18] = target: Transient receptor potential cation channel subfamily A member 1 (Rattus norvegicus) (UniProt Q6RI86); assay: In vivo antagonist activity at TRPA1 in AITC-induced rat pain model assessed as nocifensive behaviour at 24.47 ratio of free plasma concentration to IC50 for rat […]; type: functional, organism-based; conditions: concentration not given here
[19] = target: Transient receptor potential cation channel subfamily A member 1 (Rattus norvegicus) (UniProt Q6RI86); assay: In vivo antagonist activity at TRPA1 in AITC-induced rat pain model assessed as nocifensive behaviour at 93.41 ratio of free plasma concentration to IC50 for rat […]; type: functional, organism-based; conditions: concentration not given here
[20] = target: Transient receptor potential cation channel subfamily M member 8 (Homo sapiens) (UniProt Q7Z2W7); assay: Inhibition of human TRPM8 expressed in HEK293F cells assessed as inhibition of […]-induced calcium response up to 20 uM; type: cell-based
Transient receptor potential cation channel subfamily M member 8 (Homo sapiens), sequence (Q7Z2W7 whole entry, looked up): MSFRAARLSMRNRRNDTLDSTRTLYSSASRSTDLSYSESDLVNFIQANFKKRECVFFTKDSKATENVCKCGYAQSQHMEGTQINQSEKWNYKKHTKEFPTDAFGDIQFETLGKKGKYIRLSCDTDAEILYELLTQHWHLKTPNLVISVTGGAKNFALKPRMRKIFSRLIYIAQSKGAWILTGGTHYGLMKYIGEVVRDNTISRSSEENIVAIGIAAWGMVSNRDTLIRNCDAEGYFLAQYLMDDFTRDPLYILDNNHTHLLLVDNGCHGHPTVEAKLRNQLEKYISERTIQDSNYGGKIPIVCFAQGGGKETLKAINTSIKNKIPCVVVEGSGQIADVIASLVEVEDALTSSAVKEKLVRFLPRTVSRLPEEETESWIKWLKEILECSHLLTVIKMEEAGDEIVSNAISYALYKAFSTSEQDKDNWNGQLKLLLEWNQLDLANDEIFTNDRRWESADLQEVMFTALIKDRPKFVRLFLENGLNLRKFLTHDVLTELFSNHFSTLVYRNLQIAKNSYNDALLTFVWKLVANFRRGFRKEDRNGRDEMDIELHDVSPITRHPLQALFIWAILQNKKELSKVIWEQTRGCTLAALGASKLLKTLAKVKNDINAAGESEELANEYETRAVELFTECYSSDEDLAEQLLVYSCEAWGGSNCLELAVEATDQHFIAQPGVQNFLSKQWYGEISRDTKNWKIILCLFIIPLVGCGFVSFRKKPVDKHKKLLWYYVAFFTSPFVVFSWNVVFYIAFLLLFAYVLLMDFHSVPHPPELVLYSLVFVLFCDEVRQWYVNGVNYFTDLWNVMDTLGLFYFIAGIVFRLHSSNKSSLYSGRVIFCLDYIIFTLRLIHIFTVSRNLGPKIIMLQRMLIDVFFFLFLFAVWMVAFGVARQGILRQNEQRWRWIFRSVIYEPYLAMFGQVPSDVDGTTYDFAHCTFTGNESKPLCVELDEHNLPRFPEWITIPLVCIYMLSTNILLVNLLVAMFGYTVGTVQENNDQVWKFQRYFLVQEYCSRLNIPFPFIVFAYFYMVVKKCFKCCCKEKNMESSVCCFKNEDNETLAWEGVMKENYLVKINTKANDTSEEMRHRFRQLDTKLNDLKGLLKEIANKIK

[21] = target: T1, Short transient receptor potential channel 6 (Homo sapiens) (UniProt Q9Y210); assay: Inhibition of human TRPC6 expressed in HEK293F cells assessed as inhibition of carbachol-induced calcium response up to 20 uM; type: cell-based
T1 sequence (whole entry): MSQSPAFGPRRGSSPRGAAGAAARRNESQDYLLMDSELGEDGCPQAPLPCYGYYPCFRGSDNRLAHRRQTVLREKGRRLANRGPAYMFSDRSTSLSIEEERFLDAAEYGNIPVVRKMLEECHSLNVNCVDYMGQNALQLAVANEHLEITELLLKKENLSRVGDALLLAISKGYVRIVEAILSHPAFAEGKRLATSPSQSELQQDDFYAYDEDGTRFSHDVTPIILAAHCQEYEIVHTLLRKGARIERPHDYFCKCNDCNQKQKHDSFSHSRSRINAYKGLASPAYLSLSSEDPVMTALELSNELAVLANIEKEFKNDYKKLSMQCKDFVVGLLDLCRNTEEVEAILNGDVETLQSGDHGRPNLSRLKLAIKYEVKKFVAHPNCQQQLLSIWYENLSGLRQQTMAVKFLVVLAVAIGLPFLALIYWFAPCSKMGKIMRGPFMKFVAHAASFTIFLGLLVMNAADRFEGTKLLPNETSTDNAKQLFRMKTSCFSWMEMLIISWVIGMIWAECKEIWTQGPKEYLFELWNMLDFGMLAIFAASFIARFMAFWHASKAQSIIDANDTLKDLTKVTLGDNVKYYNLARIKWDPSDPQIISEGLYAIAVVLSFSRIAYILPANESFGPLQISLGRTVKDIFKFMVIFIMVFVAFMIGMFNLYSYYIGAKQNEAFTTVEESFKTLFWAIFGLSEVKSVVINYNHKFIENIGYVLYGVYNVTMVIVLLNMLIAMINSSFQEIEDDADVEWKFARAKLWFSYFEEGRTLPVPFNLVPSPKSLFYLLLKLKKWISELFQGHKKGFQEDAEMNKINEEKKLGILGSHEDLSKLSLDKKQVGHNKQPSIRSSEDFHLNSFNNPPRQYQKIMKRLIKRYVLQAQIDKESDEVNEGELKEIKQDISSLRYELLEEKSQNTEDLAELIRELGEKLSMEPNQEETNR

hERG (KCNH2) = hERG (KCNH2) (Homo sapiens, UniProt Q12809); assay: Inhibition of human ERG at 10 uM
Nav1.5 = Nav1.5 (Homo sapiens, UniProt Q14524); assay: Inhibition of Nav1.5 (unknown origin) at 10 uM
Nav1.5, sequence (Q14524 whole entry): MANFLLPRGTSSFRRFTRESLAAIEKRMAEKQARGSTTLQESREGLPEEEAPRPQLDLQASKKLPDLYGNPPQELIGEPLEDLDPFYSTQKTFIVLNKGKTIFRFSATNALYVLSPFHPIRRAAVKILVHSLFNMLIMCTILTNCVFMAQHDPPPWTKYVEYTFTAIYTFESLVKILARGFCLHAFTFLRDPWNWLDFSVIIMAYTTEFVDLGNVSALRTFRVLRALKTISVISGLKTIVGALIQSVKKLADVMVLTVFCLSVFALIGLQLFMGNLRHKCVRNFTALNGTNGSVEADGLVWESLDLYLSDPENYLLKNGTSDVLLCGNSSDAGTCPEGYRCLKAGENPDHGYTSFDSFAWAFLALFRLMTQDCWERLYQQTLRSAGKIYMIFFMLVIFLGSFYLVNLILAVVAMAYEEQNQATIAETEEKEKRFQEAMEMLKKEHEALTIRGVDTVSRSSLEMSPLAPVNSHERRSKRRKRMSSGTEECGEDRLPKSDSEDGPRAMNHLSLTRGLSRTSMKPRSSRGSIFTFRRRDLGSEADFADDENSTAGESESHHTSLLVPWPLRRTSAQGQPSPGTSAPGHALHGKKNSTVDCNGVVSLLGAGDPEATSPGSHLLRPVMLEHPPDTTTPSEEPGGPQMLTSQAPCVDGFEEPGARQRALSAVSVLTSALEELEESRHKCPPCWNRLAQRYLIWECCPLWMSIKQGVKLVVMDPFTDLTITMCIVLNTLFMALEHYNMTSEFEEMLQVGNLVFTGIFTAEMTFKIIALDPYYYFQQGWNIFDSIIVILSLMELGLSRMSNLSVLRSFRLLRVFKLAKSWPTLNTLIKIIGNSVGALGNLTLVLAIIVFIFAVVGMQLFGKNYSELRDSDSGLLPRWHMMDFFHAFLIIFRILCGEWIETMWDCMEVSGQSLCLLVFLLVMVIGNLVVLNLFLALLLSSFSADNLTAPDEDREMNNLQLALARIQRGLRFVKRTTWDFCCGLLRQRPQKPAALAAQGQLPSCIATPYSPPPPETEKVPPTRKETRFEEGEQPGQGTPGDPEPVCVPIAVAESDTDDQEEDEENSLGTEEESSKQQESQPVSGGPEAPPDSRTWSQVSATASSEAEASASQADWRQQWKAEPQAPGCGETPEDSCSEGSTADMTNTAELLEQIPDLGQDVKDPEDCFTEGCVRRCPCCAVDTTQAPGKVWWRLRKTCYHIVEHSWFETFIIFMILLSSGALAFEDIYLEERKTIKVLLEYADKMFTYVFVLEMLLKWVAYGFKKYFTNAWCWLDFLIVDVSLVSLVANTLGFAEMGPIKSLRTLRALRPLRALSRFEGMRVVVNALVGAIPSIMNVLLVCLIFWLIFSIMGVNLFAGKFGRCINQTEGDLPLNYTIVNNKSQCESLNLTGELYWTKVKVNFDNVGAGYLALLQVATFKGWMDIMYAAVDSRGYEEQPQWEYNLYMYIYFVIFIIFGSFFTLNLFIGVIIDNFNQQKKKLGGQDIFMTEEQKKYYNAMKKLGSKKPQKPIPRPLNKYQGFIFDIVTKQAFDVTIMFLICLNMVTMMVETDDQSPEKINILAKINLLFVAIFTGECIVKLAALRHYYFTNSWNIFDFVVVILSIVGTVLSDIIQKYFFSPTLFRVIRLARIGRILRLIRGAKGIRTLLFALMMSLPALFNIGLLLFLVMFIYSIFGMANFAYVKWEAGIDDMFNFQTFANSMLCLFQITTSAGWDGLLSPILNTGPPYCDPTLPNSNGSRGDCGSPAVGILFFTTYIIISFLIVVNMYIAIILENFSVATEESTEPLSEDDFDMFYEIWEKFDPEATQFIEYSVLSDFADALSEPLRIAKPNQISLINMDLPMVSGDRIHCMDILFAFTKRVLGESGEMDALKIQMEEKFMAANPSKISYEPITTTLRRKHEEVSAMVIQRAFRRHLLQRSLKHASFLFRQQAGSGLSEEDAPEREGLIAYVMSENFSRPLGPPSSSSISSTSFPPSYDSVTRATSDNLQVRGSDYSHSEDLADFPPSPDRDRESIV

Cav1.2 = Cav1.2 (Homo sapiens, UniProt Q13936); assay: Inhibition of Cav1.2 (unknown origin) at 10 uM
[22] = Inhibition of guinea pig TRPA1; set-up: species or system Cavia porcellus
Cavia porcellus = assay: Antiinflammatory activity against ovalbumin-induced po dosed Hartley guinea pig asthma model assessed as reduction in BAL fluid infiltrate in the airway treated 2 hrs before and 8 hrs after 28 days of ovalbumin challenge measured after 24 hrs; type: functional, organism-based
Cytochrome P450 3A4 = Cytochrome P450 3A4 (Homo sapiens, UniProt P08684); assay: Inhibition of CYP3A4 (unknown origin); type: ADME
Cytochrome P450 2D6 = Cytochrome P450 2D6 (Homo sapiens, UniProt P10635); assay: Inhibition of CYP2D6 (unknown origin); type: ADME
Cytochrome P450 2D6, sequence (P10635 whole entry): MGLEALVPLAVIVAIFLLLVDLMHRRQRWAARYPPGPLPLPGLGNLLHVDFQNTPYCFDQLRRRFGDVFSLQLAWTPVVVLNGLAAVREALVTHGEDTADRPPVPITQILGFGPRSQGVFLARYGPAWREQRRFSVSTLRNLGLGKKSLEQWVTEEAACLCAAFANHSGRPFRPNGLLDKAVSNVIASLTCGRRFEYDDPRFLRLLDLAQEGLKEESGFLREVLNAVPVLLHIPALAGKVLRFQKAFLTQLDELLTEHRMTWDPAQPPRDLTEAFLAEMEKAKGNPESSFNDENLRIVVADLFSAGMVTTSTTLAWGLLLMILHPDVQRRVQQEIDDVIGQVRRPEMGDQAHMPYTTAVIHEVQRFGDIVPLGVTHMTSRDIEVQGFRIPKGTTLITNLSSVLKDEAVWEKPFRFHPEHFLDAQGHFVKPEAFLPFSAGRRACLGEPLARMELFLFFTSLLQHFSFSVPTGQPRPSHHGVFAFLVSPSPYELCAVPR

[23] = target: Transient receptor potential cation channel subfamily A member 1 (Rattus norvegicus) (UniProt Q6RI86); assay: In vivo antagonist activity at TRPA1 in AITC-induced rat pain model assessed as nocifensive behaviour at 0.17 ratio of free plasma concentration to IC50 for rat […]; type: functional, organism-based; conditions: concentration not given here
[24] = target: Transient receptor potential cation channel subfamily A member 1 (Rattus norvegicus) (UniProt Q6RI86); assay: In vivo antagonist activity at TRPA1 in AITC-induced rat pain model assessed as nocifensive behaviour at 0.53 ratio of free plasma concentration to IC50 for rat […]; type: functional, organism-based; conditions: concentration not given here
[25] = target: Transient receptor potential cation channel subfamily A member 1 (Rattus norvegicus) (UniProt Q6RI86); assay: In vivo antagonist activity at TRPA1 in AITC-induced rat pain model assessed as nocifensive behaviour at 3.17 ratio of free plasma concentration to IC50 for rat […]; type: functional, organism-based; conditions: concentration not given here
[26] = target: Transient receptor potential cation channel subfamily A member 1 (Rattus norvegicus) (UniProt Q6RI86); assay: In vivo antagonist activity at TRPA1 in AITC-induced rat pain model assessed as nocifensive behaviour at 0.10 ratio of free plasma concentration to IC50 for rat […]; type: functional, organism-based; conditions: concentration not given here
[27] = Stability in rat plasma assessed as compound remaining after 4 hrs; type: ADME, cell-free; conditions: read-out: Stability
[28] = Stability in human plasma assessed as compound remaining after 4 hrs; type: ADME, cell-free; conditions: read-out: Stability

Row | CLhep predicted [1] [mL/min/kg] | CLhep predicted [2] [mL/min/kg] | IC50 [3] [nM] | IC50 [4] [nM] | logD [5] | fraction unbound [6] | fraction unbound [7] | half-life [8] [h] | EC50 (Rattus norvegicus) [nM] | Vduss [9] [L/kg] | Vd [10] [L/kg] | clearance [11] [mL/min/kg] | Papp A→B [12] [×10⁻⁶ cm/s] | solubility kinetic [13] [µM] | bioavailability [14] [%] | CLhep predicted [15] [mL/min/kg] | SMILES | further results
1 | 5 | 14 | 7.4 | 0.9 | 1.8 | 0.171 | 0.246 | 1.6 | 53 | 8.54 | 2.1 | 17 | 16 | 43 (≈ 17.8 µg/mL) | 90 | 29 | Cn1cnc2ncn(Cc3nc([C@@H]4CO[C@@H](c5ccc(Cl)cc5)C4)no3)c(=O)c21 | inhibition [16]: 30%; inhibition [17]: 53%; inhibition [18]: 80%; inhibition [19]: 100%; inhibition [20]: inactive; inhibition [21]: inactive; inhibition at 10 µM (hERG (KCNH2)): < 15%; inhibition at 10 µM (Nav1.5): < 15%; inhibition at 10 µM (Cav1.2): < 15%; IC50 [22]: 7.1 nM; Activity (Cavia porcellus): Dose-dependent effect; IC50 (Cytochrome P450 3A4): > 10000 nM; IC50 (Cytochrome P450 2D6): > 10000 nM
2 | 15 | 32 | 8.2 | 8.1 | 3 | 0.009 | 0.02 | 2.5 | 6.2 | 140 | 2.8 | 15 | 20.7 | 13 (≈ 5.51 µg/mL) | 32 | 43 | Cc1cnn2ncn(Cc3nc([C@H]4[C@@H]5CN(c6cccc(Cl)c6)C[C@@H]54)no3)c(=O)c12 | inhibition [23]: 36%; inhibition [24]: 63%; inhibition [25]: 87%; inhibition [26]: 30%
3 | 9.5 | 23 | – | 2 | 1.6 | – | – | – | – | – | – | – | – | – | – | – | Cn1cnc2ncn(Cc3nn([C@@H]4CO[C@@H](c5ccc(Cl)cc5)C4)c(=O)o3)c(=O)c21 | remaining at 4 h [27]: 61%; remaining at 4 h [28]: 76%

Source: ChEMBL document CHEMBL5055619, “Tetrahydrofuran-Based Transient Receptor Potential Ankyrin 1 (TRPA1) Antagonists: Ligand-Based Discovery, Activity in a Rodent Asthma Model, and Mechanism-of-Action via Cryogenic Electron Microscopy” (J Med Chem, 2021)
